In the kinase profiling compilation of Christmann-Franck et al. (2016):

Key:
Assay in all cases: KINOMEscan competition binding
Conditions in all cases: compound 10.0 µM
STK24 (human) = STK24 (human) (UniProt Q9Y6E0)
CDK7 (human) = CDK7 (human) (UniProt P50613)
[1] = system: FLT3 (human), P36888 [D835H]
DYRK1B (human) = DYRK1B (human) (UniProt Q9Y463)
CAMKK1 (human) = CAMKK1 (human) (UniProt Q8N5S9)
CLK2 (human) = CLK2 (human) (UniProt P49760)
DCLK3 (human) = DCLK3 (human) (UniProt Q9C098)
STK16 (human) = STK16 (human) (UniProt O75716)
RIOK1 (human) = RIOK1 (human) (UniProt Q9BRS2)
[2] = biological target: TYK2 JH2 pseudokinase (human) (UniProt P29597)
TNK1 (human) = TNK1 (human) (UniProt Q13470)
DAPK2 (human) = DAPK2 (human) (UniProt Q9UIK4)
CSNK1G1 (human) = CSNK1G1 (human) (UniProt Q9HCP0)
[3] = system: EGFR (human), P00533 [G719S]
STK11 (human) = STK11 (human) (UniProt Q15831)
MAP2K3 (human) = MAP2K3 (human) (UniProt P46734)
Sequence of MAP2K3 (human) (P46734 whole entry, looked up): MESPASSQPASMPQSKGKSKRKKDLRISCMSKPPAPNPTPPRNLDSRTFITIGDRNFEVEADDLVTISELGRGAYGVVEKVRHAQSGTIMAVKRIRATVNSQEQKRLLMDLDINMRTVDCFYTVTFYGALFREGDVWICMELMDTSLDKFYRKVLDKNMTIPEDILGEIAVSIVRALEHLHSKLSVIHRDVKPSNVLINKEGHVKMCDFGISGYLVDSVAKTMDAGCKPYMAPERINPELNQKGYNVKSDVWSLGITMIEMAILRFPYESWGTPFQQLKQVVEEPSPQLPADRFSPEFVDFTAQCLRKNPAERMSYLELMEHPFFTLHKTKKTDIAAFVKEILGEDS

AURKB (human) = AURKB (human) (UniProt Q96GD4)
STK17A (human) = STK17A (human) (UniProt Q9UEE5)
MYLK3 (human) = MYLK3 (human) (UniProt Q32MK0)
Sequence of MYLK3 (human) (Q32MK0 whole entry, looked up): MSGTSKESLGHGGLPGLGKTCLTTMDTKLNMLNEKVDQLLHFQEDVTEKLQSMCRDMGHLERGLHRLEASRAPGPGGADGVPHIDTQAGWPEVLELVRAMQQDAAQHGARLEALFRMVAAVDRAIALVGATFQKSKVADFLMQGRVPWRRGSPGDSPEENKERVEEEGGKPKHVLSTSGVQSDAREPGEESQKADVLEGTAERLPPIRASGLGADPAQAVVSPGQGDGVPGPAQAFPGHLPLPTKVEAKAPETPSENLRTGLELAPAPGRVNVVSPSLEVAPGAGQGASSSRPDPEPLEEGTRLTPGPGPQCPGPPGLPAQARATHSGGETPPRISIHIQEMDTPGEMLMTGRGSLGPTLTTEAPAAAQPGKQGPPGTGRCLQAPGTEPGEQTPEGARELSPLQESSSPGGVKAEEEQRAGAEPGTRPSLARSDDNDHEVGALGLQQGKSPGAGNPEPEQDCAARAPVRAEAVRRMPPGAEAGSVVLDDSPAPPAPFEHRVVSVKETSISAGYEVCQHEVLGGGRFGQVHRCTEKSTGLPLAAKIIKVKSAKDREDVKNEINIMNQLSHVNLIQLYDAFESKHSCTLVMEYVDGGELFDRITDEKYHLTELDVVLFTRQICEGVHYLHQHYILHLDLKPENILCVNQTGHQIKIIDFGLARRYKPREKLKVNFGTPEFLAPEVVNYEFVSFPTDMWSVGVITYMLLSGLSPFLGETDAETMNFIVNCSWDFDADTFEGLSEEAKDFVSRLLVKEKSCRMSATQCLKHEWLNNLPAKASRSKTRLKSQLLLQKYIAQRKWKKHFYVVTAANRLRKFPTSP

RIPK2 (human) = RIPK2 (human) (UniProt O43353)
Sequence of RIPK2 (human) (O43353 whole entry, looked up): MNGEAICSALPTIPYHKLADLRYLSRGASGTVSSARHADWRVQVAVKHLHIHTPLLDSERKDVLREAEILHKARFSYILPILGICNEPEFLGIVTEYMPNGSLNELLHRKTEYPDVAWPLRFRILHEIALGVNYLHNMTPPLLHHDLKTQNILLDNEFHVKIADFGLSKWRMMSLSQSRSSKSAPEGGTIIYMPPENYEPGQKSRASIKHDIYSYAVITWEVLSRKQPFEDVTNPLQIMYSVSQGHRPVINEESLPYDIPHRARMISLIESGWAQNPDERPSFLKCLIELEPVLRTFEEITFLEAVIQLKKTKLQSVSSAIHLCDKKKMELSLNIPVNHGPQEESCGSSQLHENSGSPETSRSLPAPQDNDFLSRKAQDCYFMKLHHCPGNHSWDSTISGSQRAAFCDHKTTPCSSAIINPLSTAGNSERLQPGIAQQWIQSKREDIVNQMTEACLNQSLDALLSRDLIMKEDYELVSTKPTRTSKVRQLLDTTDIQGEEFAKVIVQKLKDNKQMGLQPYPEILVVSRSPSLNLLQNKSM

ACVR2B (human) = ACVR2B (human) (UniProt Q13705)
PHKG2 (human) = PHKG2 (human) (UniProt P15735)
MAPK15 (human) = MAPK15 (human) (UniProt Q8TD08)
Sequence of MAPK15 (human) (Q8TD08 whole entry, looked up): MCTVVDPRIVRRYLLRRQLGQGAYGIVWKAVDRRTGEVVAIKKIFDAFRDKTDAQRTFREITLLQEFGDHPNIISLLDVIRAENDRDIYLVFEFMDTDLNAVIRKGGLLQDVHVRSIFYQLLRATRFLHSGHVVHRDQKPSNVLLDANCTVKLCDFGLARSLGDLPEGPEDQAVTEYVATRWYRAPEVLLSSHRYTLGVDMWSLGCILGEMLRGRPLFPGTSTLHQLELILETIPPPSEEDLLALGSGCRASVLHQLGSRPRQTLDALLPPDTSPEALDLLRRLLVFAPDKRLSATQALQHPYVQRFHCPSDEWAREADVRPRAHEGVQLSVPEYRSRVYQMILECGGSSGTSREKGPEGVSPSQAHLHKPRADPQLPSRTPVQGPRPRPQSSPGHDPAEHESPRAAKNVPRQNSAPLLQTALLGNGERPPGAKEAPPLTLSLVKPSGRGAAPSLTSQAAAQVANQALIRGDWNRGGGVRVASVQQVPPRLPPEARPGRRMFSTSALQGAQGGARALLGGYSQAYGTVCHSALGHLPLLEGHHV

CLK4 (human) = CLK4 (human) (UniProt Q9HAZ1)
BRSK2 (human) = BRSK2 (human) (UniProt Q8IWQ3)
DMPK (human) = DMPK (human) (UniProt Q09013)
PIM2 (human) = PIM2 (human) (UniProt Q9P1W9)
TLK1 (human) = TLK1 (human) (UniProt Q9UKI8)
[4] = biological target: JAK1 JH2 pseudokinase (human) (UniProt P23458)
Sequence of JAK1 JH2 pseudokinase (human) (P23458 whole entry, looked up): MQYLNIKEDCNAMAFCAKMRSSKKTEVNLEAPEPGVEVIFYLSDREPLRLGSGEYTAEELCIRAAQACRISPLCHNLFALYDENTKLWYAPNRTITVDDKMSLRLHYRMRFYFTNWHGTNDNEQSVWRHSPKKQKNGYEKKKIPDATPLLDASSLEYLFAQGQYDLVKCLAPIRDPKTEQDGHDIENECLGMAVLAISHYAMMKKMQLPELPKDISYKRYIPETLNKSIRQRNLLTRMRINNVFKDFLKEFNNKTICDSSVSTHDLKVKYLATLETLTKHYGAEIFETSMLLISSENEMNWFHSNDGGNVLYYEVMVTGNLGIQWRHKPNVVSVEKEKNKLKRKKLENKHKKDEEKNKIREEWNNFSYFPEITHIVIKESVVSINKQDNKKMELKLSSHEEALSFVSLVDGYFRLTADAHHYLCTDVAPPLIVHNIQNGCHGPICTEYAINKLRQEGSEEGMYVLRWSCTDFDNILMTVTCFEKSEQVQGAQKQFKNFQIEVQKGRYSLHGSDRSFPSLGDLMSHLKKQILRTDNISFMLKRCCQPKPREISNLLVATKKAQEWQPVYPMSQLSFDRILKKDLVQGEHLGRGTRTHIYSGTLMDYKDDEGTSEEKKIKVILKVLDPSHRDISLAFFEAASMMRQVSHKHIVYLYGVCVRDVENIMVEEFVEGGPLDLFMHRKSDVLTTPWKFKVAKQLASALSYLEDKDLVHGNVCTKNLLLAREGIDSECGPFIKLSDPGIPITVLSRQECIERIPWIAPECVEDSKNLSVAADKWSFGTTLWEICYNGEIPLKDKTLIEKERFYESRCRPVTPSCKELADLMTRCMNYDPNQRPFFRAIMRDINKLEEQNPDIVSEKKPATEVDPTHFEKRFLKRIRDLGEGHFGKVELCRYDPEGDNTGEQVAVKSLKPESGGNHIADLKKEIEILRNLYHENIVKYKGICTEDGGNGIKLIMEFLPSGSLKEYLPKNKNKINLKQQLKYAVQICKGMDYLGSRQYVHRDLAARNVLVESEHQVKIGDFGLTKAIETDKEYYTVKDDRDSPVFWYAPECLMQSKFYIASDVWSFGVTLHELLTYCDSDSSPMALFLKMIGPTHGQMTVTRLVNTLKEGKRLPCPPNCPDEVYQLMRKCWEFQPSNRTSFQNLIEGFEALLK

MAP4K2 (human) = MAP4K2 (human) (UniProt Q12851)
KIT (human) = KIT (human) (UniProt P10721)
RIOK3 (human) = RIOK3 (human) (UniProt O14730)
Sequence of RIOK3 (human) (O14730 whole entry, looked up): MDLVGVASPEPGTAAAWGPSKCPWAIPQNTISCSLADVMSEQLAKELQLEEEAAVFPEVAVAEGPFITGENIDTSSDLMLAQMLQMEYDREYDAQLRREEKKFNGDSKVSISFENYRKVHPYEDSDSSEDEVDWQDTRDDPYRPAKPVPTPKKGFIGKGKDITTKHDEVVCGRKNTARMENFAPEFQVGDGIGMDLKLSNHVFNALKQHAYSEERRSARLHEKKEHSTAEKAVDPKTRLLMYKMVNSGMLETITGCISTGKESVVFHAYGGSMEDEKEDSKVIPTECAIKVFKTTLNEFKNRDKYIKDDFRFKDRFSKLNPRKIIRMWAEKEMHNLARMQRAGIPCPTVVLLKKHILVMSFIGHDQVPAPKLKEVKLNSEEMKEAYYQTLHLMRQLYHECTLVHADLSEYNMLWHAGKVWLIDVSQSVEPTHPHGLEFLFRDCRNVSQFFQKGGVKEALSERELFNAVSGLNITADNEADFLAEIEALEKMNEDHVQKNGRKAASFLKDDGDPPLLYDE

[5] = system: FLT3 (human), P36888 [N841I]
TAOK1 (human) = TAOK1 (human) (UniProt Q7L7X3)
PRKD3 (human) = PRKD3 (human) (UniProt O94806)
RPS6KA6 KD2 (human) = RPS6KA6 KD2 (human) (UniProt Q9UK32)
CDK16 (human) = CDK16 (human) (UniProt Q00536)
CHUK (human) = CHUK (human) (UniProt O15111)
ULK2 (human) = ULK2 (human) (UniProt Q8IYT8)
Sequence of ULK2 (human) (Q8IYT8 whole entry, looked up): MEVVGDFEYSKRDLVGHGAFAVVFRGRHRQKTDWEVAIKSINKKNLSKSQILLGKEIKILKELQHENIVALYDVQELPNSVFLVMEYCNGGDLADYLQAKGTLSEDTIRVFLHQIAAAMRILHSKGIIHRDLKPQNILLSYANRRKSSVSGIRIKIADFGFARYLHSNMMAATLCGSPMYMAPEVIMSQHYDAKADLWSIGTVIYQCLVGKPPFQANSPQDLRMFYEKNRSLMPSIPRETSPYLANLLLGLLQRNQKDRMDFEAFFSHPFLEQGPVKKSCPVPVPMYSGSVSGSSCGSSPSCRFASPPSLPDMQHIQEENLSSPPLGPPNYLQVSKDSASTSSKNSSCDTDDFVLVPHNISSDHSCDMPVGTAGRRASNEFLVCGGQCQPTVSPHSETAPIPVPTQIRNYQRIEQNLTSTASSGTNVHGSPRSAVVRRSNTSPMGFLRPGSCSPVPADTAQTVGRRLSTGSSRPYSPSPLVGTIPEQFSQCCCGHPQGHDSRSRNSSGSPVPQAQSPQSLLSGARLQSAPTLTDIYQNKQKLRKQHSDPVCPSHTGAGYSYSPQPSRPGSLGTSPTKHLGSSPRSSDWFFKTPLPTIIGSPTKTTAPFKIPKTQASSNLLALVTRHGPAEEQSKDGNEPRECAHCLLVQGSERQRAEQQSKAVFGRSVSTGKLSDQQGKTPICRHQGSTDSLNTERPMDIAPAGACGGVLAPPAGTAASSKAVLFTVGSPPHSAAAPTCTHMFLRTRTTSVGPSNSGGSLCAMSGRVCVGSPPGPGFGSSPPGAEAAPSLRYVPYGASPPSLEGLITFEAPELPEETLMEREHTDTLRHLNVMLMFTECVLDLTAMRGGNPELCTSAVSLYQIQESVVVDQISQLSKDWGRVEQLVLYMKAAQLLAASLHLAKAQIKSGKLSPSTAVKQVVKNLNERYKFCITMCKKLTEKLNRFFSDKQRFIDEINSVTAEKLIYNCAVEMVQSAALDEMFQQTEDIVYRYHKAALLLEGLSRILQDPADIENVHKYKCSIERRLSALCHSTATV

[6] = system: EGFR (human), P00533 [747-751 del / S ins]
[7] = system: KIT (human), P10721 [D816V]
PIM3 (human) = PIM3 (human) (UniProt Q86V86)

Compound `CN1C(=O)c2ccccc2N(C)c2nc(NS(=O)(=O)c3ccc(N)cc3)ncc21` has a kinase still bound, per cent of control (STK24 (human)) of 100%, a kinase still bound, per cent of control (CDK7 (human)) of 91% and a kinase still bound, per cent of control [1] of 95%. The kinase still bound, per cent of control (DYRK1B (human)) was 100%, the kinase still bound, per cent of control (CAMKK1 (human)) was 100% and the kinase still bound, per cent of control (CLK2 (human)) was 100%. For the same compound, the kinase still bound, per cent of control (DCLK3 (human)) was 100%, the kinase still bound, per cent of control (STK16 (human)) was 100% and the kinase still bound, per cent of control (RIOK1 (human)) was 66%. The kinase still bound, per cent of control [2] was 63%, the kinase still bound, per cent of control (TNK1 (human)) was 100% and the kinase still bound, per cent of control (DAPK2 (human)) was 94%. It also gave a kinase still bound, per cent of control (CSNK1G1 (human)) of 100%, a kinase still bound, per cent of control [3] of 100% and a kinase still bound, per cent of control (STK11 (human)) of 100%. The kinase still bound, per cent of control (MAP2K3 (human)) was 74%, the kinase still bound, per cent of control (AURKB (human)) was 100% and the kinase still bound, per cent of control (STK17A (human)) was 100%. The kinase still bound, per cent of control (MYLK3 (human)) was 100%, the kinase still bound, per cent of control (RIPK2 (human)) was 100% and the kinase still bound, per cent of control (ACVR2B (human)) was 100%. The kinase still bound, per cent of control (PHKG2 (human)) was 78%, the kinase still bound, per cent of control (MAPK15 (human)) was 99% and the kinase still bound, per cent of control (CLK4 (human)) was 100%. It also gave a kinase still bound, per cent of control (BRSK2 (human)) of 100%, a kinase still bound, per cent of control (DMPK (human)) of 86% and a kinase still bound, per cent of control (PIM2 (human)) of 100%. It also gave a kinase still bound, per cent of control (TLK1 (human)) of 100%, a kinase still bound, per cent of control [4] of 100% and a kinase still bound, per cent of control (MAP4K2 (human)) of 80%. The kinase still bound, per cent of control (KIT (human)) was 76%, the kinase still bound, per cent of control (RIOK3 (human)) was 69% and the kinase still bound, per cent of control [5] was 90%. It also gave a kinase still bound, per cent of control (TAOK1 (human)) of 60%, a kinase still bound, per cent of control (PRKD3 (human)) of 100% and a kinase still bound, per cent of control (RPS6KA6 KD2 (human)) of 96%. The kinase still bound, per cent of control (CDK16 (human)) was 100%, the kinase still bound, per cent of control (CHUK (human)) was 95% and the kinase still bound, per cent of control (ULK2 (human)) was 89%. It also gave a kinase still bound, per cent of control [6] of 99%, a kinase still bound, per cent of control [7] of 100% and a kinase still bound, per cent of control (PIM3 (human)) of 100%.
`COc1cc(N2CCN(C)CC2)ccc1Nc1ncc2c(n1)Nc1ccccc1NC2=O` showed a kinase still bound, per cent of control (STK24 (human)) of 95%, a kinase still bound, per cent of control (CDK7 (human)) of 100% and a kinase still bound, per cent of control [1] of 20%. For the same compound, the kinase still bound, per cent of control (DYRK1B (human)) was 79%, the kinase still bound, per cent of control (CAMKK1 (human)) was 40% and the kinase still bound, per cent of control (CLK2 (human)) was 95%. The kinase still bound, per cent of control (DCLK3 (human)) was 98%, the kinase still bound, per cent of control (STK16 (human)) was 100% and the kinase still bound, per cent of control (RIOK1 (human)) was 67%. The kinase still bound, per cent of control [2] was 1%, the kinase still bound, per cent of control (TNK1 (human)) was 100% and the kinase still bound, per cent of control (DAPK2 (human)) was 95%. It also gave a kinase still bound, per cent of control (CSNK1G1 (human)) of 100%, a kinase still bound, per cent of control [3] of 48% and a kinase still bound, per cent of control (STK11 (human)) of 100%. It also gave a kinase still bound, per cent of control (MAP2K3 (human)) of 88%, a kinase still bound, per cent of control (AURKB (human)) of 59% and a kinase still bound, per cent of control (STK17A (human)) of 62%. For the same compound, the kinase still bound, per cent of control (MYLK3 (human)) was 100%, the kinase still bound, per cent of control (RIPK2 (human)) was 100% and the kinase still bound, per cent of control (ACVR2B (human)) was 52%. The kinase still bound, per cent of control (PHKG2 (human)) was 6.8%, the kinase still bound, per cent of control (MAPK15 (human)) was 69% and the kinase still bound, per cent of control (CLK4 (human)) was 94%. For the same compound, the kinase still bound, per cent of control (BRSK2 (human)) was 100%, the kinase still bound, per cent of control (DMPK (human)) was 91% and the kinase still bound, per cent of control (PIM2 (human)) was 100%. It also gave a kinase still bound, per cent of control (TLK1 (human)) of 70%, a kinase still bound, per cent of control [4] of 32% and a kinase still bound, per cent of control (MAP4K2 (human)) of 6.3%. It also gave a kinase still bound, per cent of control (KIT (human)) of 48%, a kinase still bound, per cent of control (RIOK3 (human)) of 68% and a kinase still bound, per cent of control [5] of 25%. The kinase still bound, per cent of control (TAOK1 (human)) was 2.9%, the kinase still bound, per cent of control (PRKD3 (human)) was 66% and the kinase still bound, per cent of control (RPS6KA6 KD2 (human)) was 29%. For the same compound, the kinase still bound, per cent of control (CDK16 (human)) was 94%, the kinase still bound, per cent of control (CHUK (human)) was 67% and the kinase still bound, per cent of control (ULK2 (human)) was 75%. The kinase still bound, per cent of control [6] was 62%, the kinase still bound, per cent of control [7] was 46% and the kinase still bound, per cent of control (PIM3 (human)) was 75%.
